Experimental data published in ChEMBL document CHEMBL1201862, “PubChem BioAssay data set” (2004).
The source made the active and inactive calls.

Key:
[1] = target: Troponin, cardiac muscle (Homo sapiens, UniProt P19429+P45379+P63316); experiment: Fluorescence-based biochemical high throughput dose response assay for activators of the calcium sensitivity of cardiac Regulated Thin Filaments (RTF). [Related pubchem assays (depositor defined):AID493008, AID493018, AID504382, AID504383]; assay type: protein-complex assay
[2] = Counterscreen for antagonists of the orexin 1 receptor (OX1R; HCRTR1): Fluorescence-based cell-based high throughput dose response assay to identify antagonists of the parental CHO cell line. [Related pubchem assays (depositor defined):AID434989, AID435008, AID463079, AID485270, AID492963, AID492964, AID492965, AID493232, AID504699, AID504701]; assay type: functional
[3] = target: T1, Orexin/Hypocretin receptor type 1 (Homo sapiens, UniProt O43613); experiment: Fluorescence-based cell-based high throughput dose response assay for antagonists of the orexin 1 receptor (OX1R; HCRTR1). [Related pubchem assays (depositor defined):AID434989, AID435008, AID463079, AID485270, AID492963, AID492964, AID492965, AID493232, AID504717, AID504718]; assay type: functional
[4] = target: T1, Orexin/Hypocretin receptor type 1; experiment: Homogeneous Time Resolved Fluorescence (HTRF)-based cell-based high throughput dose response assay for antagonists of the orexin 1 receptor (OX1R; HCRTR1). [Related pubchem assays (depositor defined):AID434989, AID435008, AID463079, AID485270, AID492963, AID492964, AID492965, AID493232, AID504717, AID504718]; assay type: functional
[5] = test system: CHO-K1; experiment: Counterscreen for antagonists of the orexin 1 receptor (OX1R; HCRTR1): Homogeneous time resolved fluorescence (HTRF)-based cell-based dose response assay to identify antagonists of the parental CHO-K1 cell line. [Related pubchem assays (depositor defined):AID434989, AID435008, AID463079, AID485270, AID492963, AID492964, AID492965, AID493232, AID504699, AID504701]; assay type: functional; settings: Cricetulus griseus;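 further: potency for inhibition of ATP-stimulated IP1 production as antagonists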
[6] = HEp-2 cell cytotoxicity, dose response, cytotoxicity control for RSV inhibitor project, HTS (AID 2410); assay type: functional; settings: human respiratory syncytial virus
[7] = target: T2, CAAX prenyl protease 2 (Saccharomyces cerevisiae S288c, UniProt Q03530); assay type: biochemical
T2 sequence (Q03530 whole entry): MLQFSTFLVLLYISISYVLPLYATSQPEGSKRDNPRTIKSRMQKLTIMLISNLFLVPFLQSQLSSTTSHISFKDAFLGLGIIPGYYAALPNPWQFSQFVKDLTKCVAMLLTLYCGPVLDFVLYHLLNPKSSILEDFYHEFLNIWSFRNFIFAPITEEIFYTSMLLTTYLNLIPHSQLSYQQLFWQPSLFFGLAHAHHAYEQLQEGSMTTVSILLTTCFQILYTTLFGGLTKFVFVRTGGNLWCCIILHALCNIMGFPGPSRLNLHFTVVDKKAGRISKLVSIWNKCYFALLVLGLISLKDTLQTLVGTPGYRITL

[8] = mammalian cell cytotoxicity, dose response, cytotoxicity control, plate reader, cherry-pick samples (AID 504397); assay type: functional, cell-based
[9] = target: T3, E3 ubiquitin-protein ligase XIAP (Homo sapiens, UniProt P98170); experiment: XIAP antagonists, biochemical, IAP family, fluorescence polarization (AID 1018); assay type: functional
[10] = target: T3, E3 ubiquitin-protein ligase XIAP; experiment: Counter Screen using XIAP-Bir3 for Chemical Antagonists of Bir1/2 domains of IAP-family anti-apoptotic proteins. [Related pubchem assays (depositor defined):AID1018, AID1449, AID1514, AID1638, AID1749, AID1750, AID488957, AID488963]
[11] = target: T4, Cannabinoid receptor 2 (Homo sapiens, UniProt P34972); experiment: SAR analysis of antagonists of the Cannabinoid Receptor 2 using an Image-Based Assay - Set 2. [Related pubchem assays (depositor defined):AID1961, AID1965]; assay type: functional
[12] = target: T5, G-protein coupled receptor 35 (Homo sapiens, UniProt Q9HC97); experiment: SAR analysis of Agonists of the GPR35 Receptor using an Image-Based Assay - Set 3. [Related pubchem assays (depositor defined):AID1961, AID1965]; assay type: functional
[13] = target: T5, G-protein coupled receptor 35; experiment: SAR analysis of Antagonists of the GPR35 Receptor using an Image-Based Assay - Set 4. [Related pubchem assays (depositor defined):[…]]; assay type: functional
[14] = target: T6, Cannabinoid receptor 1 (Homo sapiens, UniProt P21554); experiment: SAR analysis of agonists of the Cannabinoid Receptor 1 using an Image-Based Assay - Set 3. [Related pubchem assays (depositor defined):AID1961, AID1965]; assay type: functional
[15] = target: T4, Cannabinoid receptor 2; experiment: SAR analysis of agonists of the Cannabinoid Receptor 2 using an Image-Based Assay - Set 2. [Related pubchem assays (depositor defined):AID1961, AID1965]; assay type: functional
[16] = target: T6, Cannabinoid receptor 1; experiment: SAR analysis of antagonists of the Cannabinoid Receptor 1 using an Image-Based Assay - Set 3. [Related pubchem assays (depositor defined):AID1961, AID1965]; assay type: functional
[17] = target: T7, G-protein coupled receptor 55 (Homo sapiens, UniProt Q9Y2T6); experiment: SAR analysis of selective Agonists of GPR55 using an Image-Based Assay - Set 2. [Related pubchem assays (depositor defined):AID1961, AID1965]; assay type: functional
[18] = target: T8, Zinc finger protein mex-5 (Caenorhabditis elegans, UniProt Q9XUB2); experiment: MEX-5/TCR-2 RNA interaction inhibitors, dose response, biochemical, C. elegans, fluorescence polarization (AID 1960)
T8 sequence (Q9XUB2 whole entry): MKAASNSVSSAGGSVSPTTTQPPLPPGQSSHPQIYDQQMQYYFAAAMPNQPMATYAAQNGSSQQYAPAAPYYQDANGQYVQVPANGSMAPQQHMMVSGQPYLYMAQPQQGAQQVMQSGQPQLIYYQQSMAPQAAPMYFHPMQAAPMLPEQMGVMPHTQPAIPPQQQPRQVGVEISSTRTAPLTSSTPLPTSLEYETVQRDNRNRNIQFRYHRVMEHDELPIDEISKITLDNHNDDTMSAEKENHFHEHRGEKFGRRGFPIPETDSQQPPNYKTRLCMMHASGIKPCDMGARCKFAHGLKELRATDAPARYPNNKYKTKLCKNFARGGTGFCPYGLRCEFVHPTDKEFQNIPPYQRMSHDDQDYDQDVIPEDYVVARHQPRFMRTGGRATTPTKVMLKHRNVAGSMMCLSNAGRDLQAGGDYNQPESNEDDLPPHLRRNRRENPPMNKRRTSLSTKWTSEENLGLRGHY

[19] = target: T9, SUMO-activating enzyme (Homo sapiens, UniProt Q9UBT2); experiment: inhibitors of in vitro SUMOylation cascade, primary screen, biochemical, HTRF, uHTS (AID 2006); assay type: protein-complex assay
[20] = target: T10, RNA-binding protein pos-1 (Caenorhabditis elegans, UniProt G5EF15); experiment: inhibitors of POS-1/mex-3 RNA binding, dose response, biochemical, fluorescence polarization (AID 1964);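 further: purified POS-1 fused to maltose binding protein made in E. coli; potency of compounds blocking POS-1 binding to fluorescent RNA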
T10 sequence (G5EF15 whole entry): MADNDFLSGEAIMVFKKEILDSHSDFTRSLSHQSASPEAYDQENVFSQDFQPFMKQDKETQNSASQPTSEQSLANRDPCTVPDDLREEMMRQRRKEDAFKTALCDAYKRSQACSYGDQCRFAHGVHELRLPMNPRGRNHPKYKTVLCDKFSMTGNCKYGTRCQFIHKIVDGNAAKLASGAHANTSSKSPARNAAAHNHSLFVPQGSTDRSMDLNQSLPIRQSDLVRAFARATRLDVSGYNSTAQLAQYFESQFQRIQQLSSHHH

[21] = target: T9, SUMO-activating enzyme; experiment: SUMOylation inhibitor hit validation, confirmation, SUMOylation inhibitor project, biochemical, AlphaScreen (AID 2018); assay type: functional
[22] = Luminescence Cell-Based Dose Response HTS to Identify Activators of Luciferase Translation or Activity in H4 […] Cells. [Related pubchem assays: 1829 (Project Summary), 1814 (Primary HTS)]; assay type: functional
[23] = target: Sphingosine 1-phosphate receptor 4 (Homo sapiens, UniProt O95977); experiment: Late-stage fluorescence dose response cell-based assay to identify agonists of the Sphingosine 1-Phosphate Receptor 4 (S1P4): purchased compounds EC50. [Related pubchem assays (depositor defined):AID1509, AID1523, AID1563, AID1686, AID1701, AID1801]; assay type: functional
[24] = Luminescence Cell-Based Dose Confirmation HTS to Identify Activators of 5'UTR Stem-Loop Driven Alpha-Synuclein mRNA Translation in H4 Neuroglioblastoma Cells. [Related pubchem assays: 1829 (Project Summary), 1814 (Primary HTS)]; assay type: functional
[25] = target: T11, Tyrosine-protein phosphatase non-receptor type 7 (Homo sapiens, UniProt P35236); experiment: HePTP (PTPN7) phosphatase inhibitor potency, SAR follow-up, biochemical, set 2 (AID 449736); assay type: functional
T11 sequence (P35236 whole entry): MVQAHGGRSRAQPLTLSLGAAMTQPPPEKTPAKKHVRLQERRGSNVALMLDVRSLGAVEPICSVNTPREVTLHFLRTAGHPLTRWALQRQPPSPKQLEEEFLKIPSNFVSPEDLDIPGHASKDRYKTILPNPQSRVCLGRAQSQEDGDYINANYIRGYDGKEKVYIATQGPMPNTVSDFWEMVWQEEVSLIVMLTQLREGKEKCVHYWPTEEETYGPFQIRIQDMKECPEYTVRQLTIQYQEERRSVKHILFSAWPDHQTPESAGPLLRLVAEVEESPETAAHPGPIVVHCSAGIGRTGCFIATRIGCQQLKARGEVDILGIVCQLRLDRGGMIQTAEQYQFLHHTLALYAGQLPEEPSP

[26] = target: T6, Cannabinoid receptor 1; experiment: SAR analysis of agonists of the Cannabinoid Receptor 1 using an Image-Based Assay - Set 4. [Related pubchem assays (depositor defined):AID2013, AID2026]; assay type: functional
[27] = target: T4, Cannabinoid receptor 2; experiment: SAR analysis of agonists of the Cannabinoid Receptor 2 using an Image-Based Assay - Set 3. [Related pubchem assays (depositor defined):AID2013, AID2026]; assay type: functional
[28] = target: T7, G-protein coupled receptor 55; experiment: SAR Analysis of Selective Antagonists of GPR55 using an Image-Based Assay - Set 4. [Related pubchem assays (depositor defined):AID2013, AID2026]; assay type: functional
[29] = target: T5, G-protein coupled receptor 35; experiment: SAR analysis of Antagonists of the GPR35 Receptor using an Image-Based Assay - Set 6. [Related pubchem assays (depositor defined):AID2013, AID2026]; assay type: functional
[30] = target: T5, G-protein coupled receptor 35; experiment: SAR analysis of Agonists of the GPR35 Receptor using an Image-Based Assay - Set 4. [Related pubchem assays (depositor defined):AID2013, AID2026]; assay type: functional
[31] = target: T4, Cannabinoid receptor 2; experiment: SAR analysis of antagonists of the Cannabinoid Receptor 2 using an Image-Based Assay - Set 3. [Related pubchem assays (depositor defined):AID2013, AID2026]; assay type: functional
[32] = target: T6, Cannabinoid receptor 1; experiment: SAR analysis of antagonists of the Cannabinoid Receptor 1 using an Image-Based Assay - Set 4. [Related pubchem assays (depositor defined):AID2013, AID2026]; assay type: functional

T4 sequence (P34972 whole entry): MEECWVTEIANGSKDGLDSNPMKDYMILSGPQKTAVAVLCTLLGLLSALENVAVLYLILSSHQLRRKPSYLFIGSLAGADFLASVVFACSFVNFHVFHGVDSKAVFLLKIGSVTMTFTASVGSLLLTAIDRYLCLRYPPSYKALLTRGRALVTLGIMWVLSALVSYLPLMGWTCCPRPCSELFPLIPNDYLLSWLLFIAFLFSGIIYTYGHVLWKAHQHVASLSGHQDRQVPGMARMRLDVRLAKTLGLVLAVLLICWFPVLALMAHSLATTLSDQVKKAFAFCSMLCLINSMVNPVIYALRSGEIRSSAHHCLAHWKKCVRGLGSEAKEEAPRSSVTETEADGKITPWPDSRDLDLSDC
T6 sequence (P21554 whole entry): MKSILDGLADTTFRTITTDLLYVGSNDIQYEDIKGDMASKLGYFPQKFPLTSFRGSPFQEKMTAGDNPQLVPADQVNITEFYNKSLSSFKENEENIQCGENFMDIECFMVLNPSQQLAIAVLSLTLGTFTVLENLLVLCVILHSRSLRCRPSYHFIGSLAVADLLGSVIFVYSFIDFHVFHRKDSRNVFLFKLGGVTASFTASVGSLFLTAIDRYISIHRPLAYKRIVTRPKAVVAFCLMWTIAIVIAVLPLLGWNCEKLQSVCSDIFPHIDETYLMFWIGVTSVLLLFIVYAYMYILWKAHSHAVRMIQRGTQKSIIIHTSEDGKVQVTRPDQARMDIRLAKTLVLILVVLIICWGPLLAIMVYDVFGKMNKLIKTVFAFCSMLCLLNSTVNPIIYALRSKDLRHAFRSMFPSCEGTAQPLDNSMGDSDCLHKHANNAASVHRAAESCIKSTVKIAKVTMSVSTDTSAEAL
T5 sequence (Q9HC97 whole entry): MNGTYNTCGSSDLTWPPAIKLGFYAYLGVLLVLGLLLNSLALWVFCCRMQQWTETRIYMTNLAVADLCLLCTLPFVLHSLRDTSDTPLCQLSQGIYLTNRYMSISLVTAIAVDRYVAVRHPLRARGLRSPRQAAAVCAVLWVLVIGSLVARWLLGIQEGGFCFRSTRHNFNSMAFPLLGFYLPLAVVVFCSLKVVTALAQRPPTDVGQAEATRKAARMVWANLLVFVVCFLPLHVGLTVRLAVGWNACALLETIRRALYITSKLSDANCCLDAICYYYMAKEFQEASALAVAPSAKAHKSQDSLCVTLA
T9 sequence (Q9UBE0 whole entry, the tested form may be a part): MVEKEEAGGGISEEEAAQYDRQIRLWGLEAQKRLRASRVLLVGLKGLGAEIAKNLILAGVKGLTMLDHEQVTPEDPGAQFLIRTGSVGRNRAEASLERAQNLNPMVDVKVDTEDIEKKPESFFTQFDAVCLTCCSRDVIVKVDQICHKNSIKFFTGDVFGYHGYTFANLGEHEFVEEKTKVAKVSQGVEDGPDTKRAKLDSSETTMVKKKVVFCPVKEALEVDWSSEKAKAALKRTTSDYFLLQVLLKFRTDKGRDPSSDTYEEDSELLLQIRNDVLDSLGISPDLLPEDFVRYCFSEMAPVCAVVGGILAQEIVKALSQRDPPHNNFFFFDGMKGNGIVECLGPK
T9 sequence (Q9UBT2 whole entry, the tested form may be a part): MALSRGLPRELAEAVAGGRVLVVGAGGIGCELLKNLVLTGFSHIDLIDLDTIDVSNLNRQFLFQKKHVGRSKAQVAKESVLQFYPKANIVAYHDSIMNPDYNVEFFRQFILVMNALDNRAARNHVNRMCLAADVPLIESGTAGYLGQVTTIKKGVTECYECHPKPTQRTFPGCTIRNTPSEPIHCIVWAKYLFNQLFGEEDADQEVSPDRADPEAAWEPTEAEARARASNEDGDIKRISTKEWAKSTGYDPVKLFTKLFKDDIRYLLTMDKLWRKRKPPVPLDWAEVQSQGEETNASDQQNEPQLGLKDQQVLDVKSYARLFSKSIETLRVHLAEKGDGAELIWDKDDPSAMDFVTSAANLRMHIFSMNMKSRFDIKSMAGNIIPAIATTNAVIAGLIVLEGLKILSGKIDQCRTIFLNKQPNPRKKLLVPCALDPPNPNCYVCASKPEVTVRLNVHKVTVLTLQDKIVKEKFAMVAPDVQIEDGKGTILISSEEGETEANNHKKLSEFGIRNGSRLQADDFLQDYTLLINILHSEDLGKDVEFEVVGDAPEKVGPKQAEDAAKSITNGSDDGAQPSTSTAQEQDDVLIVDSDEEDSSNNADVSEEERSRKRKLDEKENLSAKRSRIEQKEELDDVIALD
T7 sequence (Q9Y2T6 whole entry): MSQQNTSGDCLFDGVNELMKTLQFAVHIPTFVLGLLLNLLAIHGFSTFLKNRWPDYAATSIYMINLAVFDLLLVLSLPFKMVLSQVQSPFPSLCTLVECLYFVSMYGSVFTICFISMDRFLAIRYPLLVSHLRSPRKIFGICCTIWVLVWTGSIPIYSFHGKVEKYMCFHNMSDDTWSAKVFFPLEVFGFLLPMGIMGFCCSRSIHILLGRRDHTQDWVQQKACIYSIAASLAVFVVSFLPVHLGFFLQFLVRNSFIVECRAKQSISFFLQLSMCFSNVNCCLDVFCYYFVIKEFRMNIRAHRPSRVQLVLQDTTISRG
T1 sequence (O43613 whole entry): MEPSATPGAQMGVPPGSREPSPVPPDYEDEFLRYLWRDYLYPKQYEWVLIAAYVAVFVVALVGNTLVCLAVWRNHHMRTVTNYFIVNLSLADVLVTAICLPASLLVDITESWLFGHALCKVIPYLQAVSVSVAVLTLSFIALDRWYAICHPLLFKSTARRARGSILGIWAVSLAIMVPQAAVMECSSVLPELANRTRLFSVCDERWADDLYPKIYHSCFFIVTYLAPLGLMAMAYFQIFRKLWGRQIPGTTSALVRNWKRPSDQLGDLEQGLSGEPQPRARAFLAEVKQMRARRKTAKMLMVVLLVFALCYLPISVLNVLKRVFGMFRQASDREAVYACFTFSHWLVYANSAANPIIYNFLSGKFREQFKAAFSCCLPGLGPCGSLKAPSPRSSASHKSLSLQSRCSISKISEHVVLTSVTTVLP
T3 sequence (P98170 whole entry): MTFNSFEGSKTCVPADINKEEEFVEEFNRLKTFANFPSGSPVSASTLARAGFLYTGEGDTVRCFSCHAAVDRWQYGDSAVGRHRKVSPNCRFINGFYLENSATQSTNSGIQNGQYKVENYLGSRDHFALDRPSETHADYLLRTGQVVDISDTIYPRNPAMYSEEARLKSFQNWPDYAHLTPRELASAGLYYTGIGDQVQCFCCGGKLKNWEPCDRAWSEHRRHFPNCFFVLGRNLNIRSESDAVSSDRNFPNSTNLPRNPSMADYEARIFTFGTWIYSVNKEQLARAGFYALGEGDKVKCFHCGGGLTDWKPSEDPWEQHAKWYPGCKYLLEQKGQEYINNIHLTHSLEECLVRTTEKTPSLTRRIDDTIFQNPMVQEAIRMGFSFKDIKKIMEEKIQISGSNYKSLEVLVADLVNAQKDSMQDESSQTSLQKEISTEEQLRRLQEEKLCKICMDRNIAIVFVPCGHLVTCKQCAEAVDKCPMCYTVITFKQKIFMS
Chain of Sphingosine 1-phosphate receptor 4 (O95977 whole entry): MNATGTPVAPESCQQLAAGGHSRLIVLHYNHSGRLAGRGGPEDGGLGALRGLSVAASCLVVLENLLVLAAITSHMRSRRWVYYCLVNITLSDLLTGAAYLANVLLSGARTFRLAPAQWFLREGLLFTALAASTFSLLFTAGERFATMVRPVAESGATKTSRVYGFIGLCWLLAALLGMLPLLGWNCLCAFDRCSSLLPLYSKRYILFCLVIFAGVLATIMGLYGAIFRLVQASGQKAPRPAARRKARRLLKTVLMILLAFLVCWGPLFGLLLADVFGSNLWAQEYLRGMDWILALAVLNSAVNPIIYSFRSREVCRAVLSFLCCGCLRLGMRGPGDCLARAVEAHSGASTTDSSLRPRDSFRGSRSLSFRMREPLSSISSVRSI

O=C(c1ccc(COc2ccccc2Br)o1)N1N=C(C(F)F)CC1(O)C(F)F (configuration not stated)
EC50 [1]: > 71.5 µM (inactive)

Cc1cc(C)nc(N=C(N)Nc2ccc(SC(F)F)cc2)n1
IC50 [2]: 22.1 µM (inactive) | IC50 [3]: 14.7 µM (inactive) | IC50 [4]: 57 µM (inactive) | IC50 [5]: > 66.2 µM (inactive) | CC50 [6]: 16.1 µM (active)

Cc1ccc(-c2csc(N3CCN(c4cc5c(cc4Cl)nc(-c4ccncc4)n5CCOCCO)CC3)n2)cc1
AC50 [7]: 6.2 µM (active) | AC50 [8]: 231 µM (active)

CCOc1ccc2cc(C(=O)c3ccccc3)c(=O)oc2c1
IC50 [9]: > 100 µM (not active) | IC50 [10]: > 100 µM (inactive)

COc1ccc(S(=O)(=O)N2CCOCC2)cc1NC(=O)c1ccc(Cl)cc1
IC50 [11]: > 32 µM (inactive) | EC50 [12]: > 32 µM (inactive) | IC50 [13]: 12.3 µM (inactive) | EC50 [14]: 5.08 µM (active) | EC50 [15]: > 32 µM (inactive) | IC50 [16]: > 32 µM (inactive) | EC50 [17]: 138 nM (active)

CC(=O)c1ccc(-c2ccc(/C=C(/Sc3n[nH]c(C)n3)C(=O)O)o2)cc1
EC50 [18]: 14.9 µM (active) | IC50 [19]: 74.2 µM (active) | EC50 [20]: 21.6 µM (active) | IC50 [21]: 4.2 µM (active)

Cc1ccc(OCCOc2cccc(Br)c2)c([N+](=O)[O-])n1
EC50 [22]: 27.6 µM (active) | EC50 [23]: > 50 µM (inactive) | EC50 [24]: 5.57 µM (active)

Cc1ccc(C)c(-n2c(N)c(C(=O)N3CCCCC3)sc2=S)c1
IC50 [25]: > 100 µM (inactive)

Cc1[nH]nc(-c2ccc(OCCN3CCOCC3)cc2O)c1-c1ccc(Cl)cc1
EC50 [26]: > 32 µM (inactive) | EC50 [27]: > 32 µM (inactive) | IC50 [28]: 19.2 µM (inactive) | IC50 [29]: > 32 µM (inactive) | EC50 [30]: > 32 µM (inactive) | IC50 [31]: 29.1 µM (inactive) | IC50 [32]: 2.11 µM (active)
